From PubChem BioAssay AID2060345 (Molecular Pharmacology Branch, DTP, NCI, 2025)
Values joined by “and” are separate entries in the source; they are usually repeats but may differ in a detail not shown here. Equal values may be shown once.

Test system: MALME-3M multicell spheroids, viability
Test: Anticancer human tumor MALME-3M cell line growth inhibition [TAK];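 further: spheroids exposed to drugs for seven days before readout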;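 on viability, T/C: 100% = DMSO vehicle control viability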
Conditions: for viability, T/C: stronger effect = lower value
Outline: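 Drug combinations, each paired with TAK-243 or ipatasertib, were tested on multi-cell spheroids of 60% malignant cells, 25% HUVEC and 15% hMSC. Top concentrations were at or near the clinical Cmax (10 microM if undetermined), decreasing by half-log; viability is given as % test/control.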

[1] = curve of first compound, second compound 0.3 µM
[2] = curve of first compound, second compound 0.949 µM
[3] = curve of first compound, second compound 3 µM
[4] = curve of first compound, second compound 9.49 µM
[5] = curve of first compound, second compound 30 µM
[6] = second compound 0.3 µM, first compound 0.00949 µM
[7] = second compound 0.3 µM, first compound 0.03 µM
[8] = second compound 0.949 µM, first compound 0.00949 µM
[9] = second compound 0.949 µM, first compound 0.03 µM
[10] = second compound 3 µM, first compound 0.00949 µM
[11] = second compound 3 µM, first compound 0.03 µM
[12] = second compound 9.49 µM, first compound 0.00949 µM
[13] = second compound 9.49 µM, first compound 0.03 µM
[14] = second compound 30 µM, first compound 0.00949 µM
[15] = second compound 30 µM, first compound 0.03 µM

In the case of `Cn1cnc2c(F)c(Nc3ccc(Br)cc3Cl)c(C(=O)NOCCO)cc21` + CC(C)NCC(C(=O)N1CCN(c2ncnc3c2C(C)CC3O)CC1)c1ccc(Cl)cc1, the IC50 [1] is reported as 41.1 nM, the IC50 [2] is reported as 36 nM and the IC50 [3] is reported as 36.5 nM. The IC50 [4] was 17.2 nM, the IC50 [5] was less than 9.49 nM and the viability, T/C [6] was 92.5%. It also gave a viability, T/C [7] of 60.7%, a viability, T/C (second compound 0.3 µM, first compound 0.0949 µM) of 21% and a viability, T/C (second compound 0.3 µM, first compound 0.3 µM) of 19%. It also gave a viability, T/C (second compound 0.3 µM, first compound 0.949 µM) of 13.1%, a viability, T/C (second compound 0.3 µM, first compound 3 µM) of 5.91% and a viability, T/C [8] of 86.2%. It also gave a viability, T/C [9] of 55.6%, a viability, T/C (second compound 0.949 µM, first compound 0.0949 µM) of 23.5% and a viability, T/C (second compound 0.949 µM, first compound 0.3 µM) of 16.7%. For the same molecule, the viability, T/C (second compound 0.949 µM, first compound 0.949 µM) was 12%, the viability, T/C (second compound 0.949 µM, first compound 3 µM) was 4.79% and the viability, T/C [10] was 78.3%. The viability, T/C [11] was 56.6%, the viability, T/C (second compound 3 µM, first compound 0.0949 µM) was 19.6% and the viability, T/C (second compound 3 µM, first compound 0.3 µM) was 16.3%. It also gave a viability, T/C (second compound 3 µM, first compound 0.949 µM) of 9.28%, a viability, T/C (second compound 3 µM, first compound 3 µM) of 3.64% and a viability, T/C [12] of 66.8%. For the same molecule, the viability, T/C [13] was 33.1%, the viability, T/C (second compound 9.49 µM, first compound 0.0949 µM) was 19.6% and the viability, T/C (second compound 9.49 µM, first compound 0.3 µM) was 12.1%. For the same molecule, the viability, T/C (second compound 9.49 µM, first compound 0.949 µM) was 7.13%, the viability, T/C (second compound 9.49 µM, first compound 3 µM) was 2.1% and the viability, T/C [14] was 47.3%. It also gave a viability, T/C [15] of 31.6%, a viability, T/C (second compound 30 µM, first compound 0.0949 µM) of 13.1% and a viability, T/C (second compound 30 µM, first compound 0.3 µM) of 7.49%. It also gave a viability, T/C (second compound 30 µM, first compound 0.949 µM) of 3.66% and a viability, T/C (second compound 30 µM, first compound 3 µM) of 0.52%.

In the case of `COC1CC2CCC(C)C(O)(O2)C(=O)C(=O)N2CCCCC2C(=O)OC(C(C)CC2CCC(OCCO)C(OC)C2)CC(=O)C(C)C=C(C)C(O)C(OC)C(=O)C(C)CC(C)C=CC=CC=C1C` (stereo not drawn) + CC(C)NCC(C(=O)N1CCN(c2ncnc3c2C(C)CC3O)CC1)c1ccc(Cl)cc1, the IC50 [1] is reported as greater than 100 nM, the IC50 [2] is reported as 8.97 nM and the IC50 [3] is reported as 1.51 nM. For the same molecule, the IC50 [4] was 0.42 nM, the IC50 [5] was less than 0.316 nM and the viability, T/C (second compound 0.3 µM, first compound 0.000316 µM) was 87.7%. For the same molecule, the viability, T/C (second compound 0.3 µM, first compound 0.001 µM) was 69.2%, the viability, T/C (second compound 0.3 µM, first compound 0.00316 µM) was 64.3% and the viability, T/C (second compound 0.3 µM, first compound 0.01 µM) was 55.7%. It also gave a viability, T/C (second compound 0.3 µM, first compound 0.0316 µM) of 53.8%, a viability, T/C (second compound 0.3 µM, first compound 0.1 µM) of 51.3% and a viability, T/C (second compound 0.949 µM, first compound 0.000316 µM) of 89.9%. For the same molecule, the viability, T/C (second compound 0.949 µM, first compound 0.001 µM) was 71.5%, the viability, T/C (second compound 0.949 µM, first compound 0.00316 µM) was 49.9% and the viability, T/C (second compound 0.949 µM, first compound 0.01 µM) was 51.8%. The viability, T/C (second compound 0.949 µM, first compound 0.0316 µM) was 50%, the viability, T/C (second compound 0.949 µM, first compound 0.1 µM) was 42.4% and the viability, T/C (second compound 3 µM, first compound 0.000316 µM) was 70.5%. For the same molecule, the viability, T/C (second compound 3 µM, first compound 0.001 µM) was 55.4%, the viability, T/C (second compound 3 µM, first compound 0.00316 µM) was 40.7% and the viability, T/C (second compound 3 µM, first compound 0.01 µM) was 32.1%. For the same molecule, the viability, T/C (second compound 3 µM, first compound 0.0316 µM) was 38%, the viability, T/C (second compound 3 µM, first compound 0.1 µM) was 29.5% and the viability, T/C (second compound 9.49 µM, first compound 0.000316 µM) was 54.4%. For the same molecule, the viability, T/C (second compound 9.49 µM, first compound 0.001 µM) was 37.1%, the viability, T/C (second compound 9.49 µM, first compound 0.00316 µM) was 26% and the viability, T/C (second compound 9.49 µM, first compound 0.01 µM) was 26.4%. For the same molecule, the viability, T/C (second compound 9.49 µM, first compound 0.0316 µM) was 23.6%, the viability, T/C (second compound 9.49 µM, first compound 0.1 µM) was 21.8% and the viability, T/C (second compound 30 µM, first compound 0.000316 µM) was 36.2%. The viability, T/C (second compound 30 µM, first compound 0.001 µM) was 32.8%, the viability, T/C (second compound 30 µM, first compound 0.00316 µM) was 20.7% and the viability, T/C (second compound 30 µM, first compound 0.01 µM) was 22.1%. It also gave a viability, T/C (second compound 30 µM, first compound 0.0316 µM) of 19.9% and a viability, T/C (second compound 30 µM, first compound 0.1 µM) of 19.1%.

`COc1c(OCCCN2CCOCC2)ccc2c3n(c(=NC(=O)c4cnc(N)nc4)nc12)CCN3` was tested, and the viability, T/C (compound 0.00316 µM) was 92.7% and 95.3%, the viability, T/C (compound 0.01 µM) was 71.3% and 85.2% and the viability, T/C (compound 0.0316 µM) was 70.3% and 76.1%. For the same molecule, the viability, T/C (compound 0.1 µM) was 51.1% and 48.3%, the viability, T/C (compound 0.316 µM) was 19% and 21.5% and the viability, T/C (compound 1 µM) was 8.97% and 8.52%. The IC50 (curve of compound) was 84 nM and 92.9 nM.

`CC(=O)Nc1cccc(-n2c(=O)n(C3CC3)c(=O)c3c(Nc4ccc(I)cc4F)n(C)c(=O)c(C)c32)c1` + CC(C)NCC(C(=O)N1CCN(c2ncnc3c2C(C)CC3O)CC1)c1ccc(Cl)cc1 was tested, and the IC50 [1] was 0.422 nM, the IC50 [2] was 0.468 nM and the IC50 [3] was 0.251 nM. The IC50 [4] was 0.181 nM, the IC50 [5] was less than 0.0949 nM and the viability, T/C (second compound 0.3 µM, first compound 94.9 pM) was 107%. The viability, T/C (second compound 0.3 µM, first compound 0.0003 µM) was 62.2%, the viability, T/C (second compound 0.3 µM, first compound 0.000949 µM) was 20.4% and the viability, T/C (second compound 0.3 µM, first compound 0.003 µM) was 14.8%. For the same molecule, the viability, T/C [6] was 10.7%, the viability, T/C [7] was 4.75% and the viability, T/C (second compound 0.949 µM, first compound 94.9 pM) was 99.9%. It also gave a viability, T/C (second compound 0.949 µM, first compound 0.0003 µM) of 68.3%, a viability, T/C (second compound 0.949 µM, first compound 0.000949 µM) of 20.4% and a viability, T/C (second compound 0.949 µM, first compound 0.003 µM) of 13.9%. For the same molecule, the viability, T/C [8] was 9.51%, the viability, T/C [9] was 5.18% and the viability, T/C (second compound 3 µM, first compound 94.9 pM) was 84.4%. For the same molecule, the viability, T/C (second compound 3 µM, first compound 0.0003 µM) was 44.2%, the viability, T/C (second compound 3 µM, first compound 0.000949 µM) was 19.2% and the viability, T/C (second compound 3 µM, first compound 0.003 µM) was 11.1%. For the same molecule, the viability, T/C [10] was 7.71%, the viability, T/C [11] was 2.69% and the viability, T/C (second compound 9.49 µM, first compound 94.9 pM) was 70.4%. It also gave a viability, T/C (second compound 9.49 µM, first compound 0.0003 µM) of 33.8%, a viability, T/C (second compound 9.49 µM, first compound 0.000949 µM) of 15.5% and a viability, T/C (second compound 9.49 µM, first compound 0.003 µM) of 10.1%. For the same molecule, the viability, T/C [12] was 4.94%, the viability, T/C [13] was 1.67% and the viability, T/C (second compound 30 µM, first compound 94.9 pM) was 44.2%. For the same molecule, the viability, T/C (second compound 30 µM, first compound 0.0003 µM) was 25%, the viability, T/C (second compound 30 µM, first compound 0.000949 µM) was 10.5% and the viability, T/C (second compound 30 µM, first compound 0.003 µM) was 4.22%. The viability, T/C [14] was 2.32% and the viability, T/C [15] was 0.3%.

For `CC(C)n1nc(-c2ccc3oc(N)nc3c2)c2c(N)ncnc21`, the viability, T/C (compound 0.000316 µM) was 78.4% and 94.5%, the viability, T/C (compound 0.001 µM) was 64.4% and 88.7% and the viability, T/C (compound 0.00316 µM) was 63% and 77.5%. The viability, T/C (compound 0.01 µM) was 47.5% and 70.1%, the viability, T/C (compound 0.0316 µM) was 28.3% and 33% and the viability, T/C (compound 0.1 µM) was 10.5% and 13.6%. The IC50 (curve of compound) was 7.44 nM and 18.1 nM.

For `COC1CC2CCC(C)C(O)(O2)C(=O)C(=O)N2CCCCC2C(=O)OC(C(C)CC2CCC(OCCO)C(OC)C2)CC(=O)C(C)C=C(C)C(O)C(OC)C(=O)C(C)CC(C)C=CC=CC=C1C` (stereo not drawn), the viability, T/C (compound 0.000316 µM) was 83% and 79.4%, the viability, T/C (compound 0.001 µM) was 66.2% and 59.1% and the viability, T/C (compound 0.00316 µM) was 58.1% and 59.4%. The viability, T/C (compound 0.01 µM) was 52.3% and 58.6%, the viability, T/C (compound 0.0316 µM) was 50.5% and 50.7% and the viability, T/C (compound 0.1 µM) was 44.2% and 44%. The IC50 (curve of compound) was 18.6 nM and 28.1 nM.

`CC(C)CC(NC(=O)CNC(=O)c1cc(Cl)ccc1Cl)B1OC(=O)CC(CC(=O)O)(C(=O)O)O1` (stereo not drawn) was tested, and the viability, T/C (compound 0.000316 µM) was 89.2% and 116%, the viability, T/C (compound 0.001 µM) was 86.8% and 91.6% and the viability, T/C (compound 0.00316 µM) was 88.2% and 98.5%. The viability, T/C (compound 0.01 µM) was 88.2% and 96%, the viability, T/C (compound 0.0316 µM) was 7.17% and 7.01% and the viability, T/C (compound 0.1 µM) was 0.41% and 1.22%. For the same molecule, the IC50 (curve of compound) was 17.2 nM and 18.1 nM.
